# Results reported in patent publication US12157730B2, “Heteroaryl derivative, method for producing same, and pharmaceutical composition comprising same as effective component” (VORONOI INC., priority 2019, dated 2024).
# Values joined by “and” are separate entries in the source; they are usually repeats but may differ in a detail not shown here. Equal values may be shown once.
# Columns and labels:
# [1] = target: T1, Ba/F3 cell EGFR Exon20 ins ASV (Homo sapiens, UniProt P00533, INS769ASV); assay: Ba/F3 cell proliferation suppression, EGFR Exon20 ins ASV; format: cell-based; conditions: 72 hours after treatment, CellTiter-Glo
# T1 construct: expressed in transfected cells; host or cells: Ba/F3
# Experimental: (§1) The following experiment was carried out to evaluate the suppression activity of the compounds according to the present invention against proliferation of Ba/F3 and lung cancer cells which express EGFR mutations.
# (§2) Of the cancer cell lines expressing the EGFR gene, A549 was cultured after adding 10% FBS (HyClone) to DMEM (Invitrogen), and RPMI-1640 (Invitrogen) with 10% FBS was used for the other cancer cells. For the Ba/F3 cells, RPMI-1640 with 10% FBS and 5 ng/ml IL-3 (R&D Systems) was used. The transduced Ba/F3 cells were cultured by adding 1 ug/ml puromycin (Invitrogen) to the same medium.
# (§3) 24 hours before treatment with the compounds, 3000 to 5000 cells were distributed into each well of a white clear bottom 96 well plate (Corning). The compounds were diluted in dimethylsulfoxide (dilution ratio 3:1; 12 concentrations total) and injected 0.5 ul each for a final concentration of 0.3 nM to 50 um. As for measurement of live cells, 72 hours after treatment with the compounds, a CellTiter-Glo luminescent cell-viability reagent (Promega) was used to store the cells at room temperature for 10 minutes, followed by measurement of luminescence using a reader (SynergyNeo, Biotek). Each test was repeated three times.
# (§4) The result was calculated as a cell growth ratio (%) compared to a control. The program GraphPad Prism version 5.0 was used to draw the graphs and calculate the GI50 values.
# PC9GR = assay: Lung cancer cell proliferation suppression, PC9GR; format: cell-based; conditions: 72 hours after treatment, CellTiter-Glo
# Experimental: as §1, §2, §3, §4
# [2] = target: T2, Ba/F3 cell HER2 Exon20 ins YVMA (Homo sapiens, UniProt P04626, INS775YVMA); assay: Ba/F3 cell proliferation suppression, HER2 Exon20 ins YVMA; format: cell-based; conditions: 72 hours after treatment, CellTiter-Glo
# T2 construct: expressed in transfected cells; host or cells: Ba/F3
# Experimental: as §1, §2, §3, §4
# [3] = system: Ba/F3 cell EGFR Del19/T790M; assay: Ba/F3 cell proliferation suppression, EGFR Del19/T790M; format: cell-based; conditions: 72 hours after treatment, CellTiter-Glo
# Experimental: as §1, §2, §3, §4
# H1975 = assay: Lung cancer cell proliferation suppression, H1975; format: cell-based; conditions: Homo sapiens, NCI-H1975; 72 hours after treatment, CellTiter-Glo
# Experimental: as §1, §2, §3, §4
# [4] = target: T3, Ba/F3 cell EGFR Exon20 ins FQEA (Homo sapiens, UniProt P00533, INS763FQEA); assay: Ba/F3 cell proliferation suppression, EGFR Exon20 ins FQEA; format: cell-based; conditions: 72 hours after treatment, CellTiter-Glo
# T3 construct: expressed in transfected cells; host or cells: Ba/F3
# Experimental: as §1, §2, §3, §4
# [5] = system: scanMAX kinase panel (EGFR mutant, ERBB2, ERBB4); assay: DiscoverX (eurofin) KINOMEscan (scanMAX platform) kinase profiling; format: binding; conditions: for suppression activity against the EGFR mutant and ERBB2 and ERBB4: KINOMEscan scanMAX kinase profiling
# Source text: It was confirmed that the above example compounds had high selectivity against EGFR series genes. Accordingly, these can be useful in the treating of cancers wherein this kinase is expressed. In particular, as they have substantially outstanding lung cancer cell line proliferation suppression, they can be useful in the treatment of lung cancer, breast cancer, and brain cancer.
# [6] = target: T4, Ba/F3 cell EGFR Exon20 ins SVD (Homo sapiens, UniProt P00533, INS770SVD); assay: Ba/F3 cell proliferation suppression, EGFR Exon20 ins SVD; format: cell-based; conditions: 72 hours after treatment, CellTiter-Glo
# T4 construct: expressed in transfected cells; host or cells: Ba/F3
# Experimental: as §1, §2, §3, §4
# Ba/F3 cell EGFR L858R = target: T5, Ba/F3 cell EGFR L858R (Homo sapiens, UniProt P00533, L858R); assay: Ba/F3 cell proliferation suppression, EGFR L858R; format: cell-based; conditions: 72 hours after treatment, CellTiter-Glo
# T5 construct: expressed in transfected cells; host or cells: Ba/F3
# Experimental: as §1, §2, §3, §4
# [7] = target: T6, Ba/F3 cell EGFR L858R/T790M (Homo sapiens, UniProt P00533, L858R/T790M); assay: Ba/F3 cell proliferation suppression, EGFR L858R/T790M; format: cell-based; conditions: 72 hours after treatment, CellTiter-Glo
# T6 construct: expressed in transfected cells; host or cells: Ba/F3
# Experimental: as §1, §2, §3, §4
# [8] = target: T7, Ba/F3 cell EGFR Exon20 ins NPH (Homo sapiens, UniProt P00533, INS773NPH); assay: Ba/F3 cell proliferation suppression, EGFR Exon20 ins NPH; format: cell-based; conditions: for GI50: 72 hours after treatment, CellTiter-Glo; for Ba/F3 (NPH) Activity: GI50 class, Ba/F3 cell line with NPH inserted at Exon20 of EGFR, 72 hours
# T7 construct: expressed in transfected cells; host or cells: Ba/F3
# Method in brief: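 After 72 h compound exposure (twelve 3-fold steps, 0.3 nM–50 um final), live cells were measured by CellTiter-Glo luminescence and growth expressed as % of control to derive GI50. Cells were seeded at 3000–5000 per well a day earlier; Ba/F3 medium contained IL-3; three repeats.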
# PC9 = assay: Lung cancer cell proliferation suppression, PC9; format: cell-based; conditions: Homo sapiens, PC-9; 72 hours after treatment, CellTiter-Glo
# Experimental: as §1, §2, §3, §4
# Ba/F3 cell naive = assay: Ba/F3 cell proliferation suppression, naive; format: cell-based; conditions: Mus musculus, BaF3; 72 hours after treatment, CellTiter-Glo
# Experimental: as §1, §2, §3, §4
# T2 sequence (P04626 with tags, fused parts or gaps INS775YVMA): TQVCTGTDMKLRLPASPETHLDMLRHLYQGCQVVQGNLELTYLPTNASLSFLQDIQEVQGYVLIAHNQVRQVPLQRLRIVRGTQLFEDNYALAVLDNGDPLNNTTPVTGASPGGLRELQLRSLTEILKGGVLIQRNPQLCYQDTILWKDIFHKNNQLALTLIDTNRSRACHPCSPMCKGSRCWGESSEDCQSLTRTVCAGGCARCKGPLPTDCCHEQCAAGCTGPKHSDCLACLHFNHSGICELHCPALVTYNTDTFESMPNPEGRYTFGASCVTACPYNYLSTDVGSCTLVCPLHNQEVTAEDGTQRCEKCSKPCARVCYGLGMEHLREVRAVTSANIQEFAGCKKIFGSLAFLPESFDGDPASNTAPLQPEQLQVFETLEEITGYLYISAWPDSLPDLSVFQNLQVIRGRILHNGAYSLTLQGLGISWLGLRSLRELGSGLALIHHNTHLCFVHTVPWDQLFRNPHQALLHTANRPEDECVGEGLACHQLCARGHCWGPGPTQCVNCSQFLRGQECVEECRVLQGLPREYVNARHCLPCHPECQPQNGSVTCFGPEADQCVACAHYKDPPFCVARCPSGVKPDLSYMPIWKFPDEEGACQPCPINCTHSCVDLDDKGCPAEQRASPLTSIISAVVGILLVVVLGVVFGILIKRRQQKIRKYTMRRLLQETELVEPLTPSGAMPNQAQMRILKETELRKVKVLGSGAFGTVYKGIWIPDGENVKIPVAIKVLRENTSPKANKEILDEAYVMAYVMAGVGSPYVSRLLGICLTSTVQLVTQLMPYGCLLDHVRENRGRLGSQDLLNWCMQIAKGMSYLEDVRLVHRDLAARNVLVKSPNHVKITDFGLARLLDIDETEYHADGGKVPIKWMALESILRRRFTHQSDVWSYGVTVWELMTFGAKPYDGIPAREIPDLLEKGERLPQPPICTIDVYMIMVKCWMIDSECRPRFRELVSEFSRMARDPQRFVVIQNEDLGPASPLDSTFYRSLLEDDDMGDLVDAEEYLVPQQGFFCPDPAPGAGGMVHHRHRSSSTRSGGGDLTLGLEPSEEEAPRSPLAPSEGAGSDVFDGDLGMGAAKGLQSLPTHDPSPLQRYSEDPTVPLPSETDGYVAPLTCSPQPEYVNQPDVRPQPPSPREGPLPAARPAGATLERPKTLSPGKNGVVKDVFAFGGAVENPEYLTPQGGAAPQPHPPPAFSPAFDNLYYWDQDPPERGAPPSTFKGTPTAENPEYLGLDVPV
Structure (SMILES),GI50 [1] [µM],GI50 (PC9GR) [nM],GI50 [2] [µM],GI50 [3] [µM],GI50 (H1975) [nM],GI50 [4] [µM],% inhibition of scanMAX Kinase profiling ([5]; EGFR(E746-A750del)),% inhibition of scanMAX Kinase profiling ([5]; EGFR(G719C)) [%],% inhibition of scanMAX Kinase profiling ([5]; EGFR(G719S)),"% inhibition of scanMAX Kinase profiling ([5]; EGFR(L747-E749del, A750P))",% inhibition of scanMAX Kinase profiling ([5]; EGFR(L747-T751del.Sins)),% inhibition of scanMAX Kinase profiling ([5]; EGFR(L858R.T790M)),suppression activity against the EGFR mutant and ERBB2 and ERBB4 [5],GI50 [6] [µM],GI50 (Ba/F3 cell EGFR L858R) [µM],GI50 [7] [µM],GI50 [8] [µM],Ba/F3 (NPH) Activity [8],GI50 (PC9) [nM],GI50 (Ba/F3 cell naive) [µM],other results
"C=CC(=O)Nc1cc(Nc2cc(N3OCC[C@@H]3c3cc(F)cc(F)c3)ncn2)c(OC)cc1N1CCC(N2C[C@H]3C[C@@H]2CO3)CC1 [Example 238, N-(2-(4-((1R,4R)-2-oxa-5-azabicyclo[2.2.1]heptane-5-yl)piperidine-1-yl)-5-((6-((R)-3-(3,5-difluorophenyl)isoxazolidine-2-yl)pyrimidine-4-yl)amino)-4-methoxyphenyl) acrylamide]",< 0.05,4,< 0.05,< 0.05,1,< 0.05,100%,100,100%,91%,92%,98%,high suppression activity,< 0.05,< 0.05,< 0.05,< 0.05,A (GI50 < 50 nM),1,0.5 to 5,% inhibition of scanMAX Kinase profiling ([5]; EGFR(L858R)): 99%; % inhibition of scanMAX Kinase profiling ([5]; EGFR(L861q)): 98%; % inhibition of scanMAX Kinase profiling ([5]; EGFR(S752-I759del)): 91%; % inhibition of scanMAX Kinase profiling ([5]; EGFR(T790M)): 100%; % inhibition of scanMAX Kinase profiling ([5]; ERBB2): 100%; % inhibition of scanMAX Kinase profiling ([5]; ERBB4): 100%
"C=CC(=O)Nc1cc(Nc2cc(N3OCC[C@@H]3c3cc(F)cc(F)c3)ncn2)c(OC)cc1N1CCC(N(C)C)CC1 [Example 241, N-(5-((6-((R)-3-(3,5-difluorophenyl)isoxazolidine-2-yl)pyrimidine-4-yl)amino)-2-(4-(dimethylamino)piperidine-1-yl)-4-methoxyphenyl) acrylamide]",< 0.05,12,< 0.05,< 0.05,1,< 0.05,50% and 100%,100,100% and 99%,99% and 98%,100% and 96%,96% and 98%,high suppression activity,< 0.05,< 0.05,< 0.05,< 0.05,A (GI50 < 50 nM),1,0.5 to 5,% inhibition of scanMAX Kinase profiling ([5]; EGFR(L861q)): 100% and 98%; % inhibition of scanMAX Kinase profiling ([5]; EGFR(S752-I759del)): 100% and 95%; % inhibition of scanMAX Kinase profiling ([5]; EGFR(T790M)): 100%; % inhibition of scanMAX Kinase profiling ([5]; ERBB2): 100%; % inhibition of scanMAX Kinase profiling ([5]; ERBB4): 100% and 94%
"C=CC(=O)Nc1cc(Nc2cc(N3OCC[C@@H]3c3cc(F)cc(F)c3)ncn2)c(OC)cc1N1CCC(N2CCOCC2)CC1 [Example 30, N-(5-((6-((R)-3-(3,5-difluorophenyl)isoxazolidine-2-yl)pyrimidine-4-yl)amino)-4-methoxy-2-(4-morpholinopiperidine-1-yl)phenyl) acrylamide]",< 0.05,6,< 0.05,< 0.05,1,< 0.05,95%,100,100%,100%,96%,97%,high suppression activity,< 0.05,< 0.05,< 0.05,< 0.05,A (GI50 < 50 nM),1,≥ 5,% inhibition of scanMAX Kinase profiling ([5]; EGFR(L858R)): 100%; % inhibition of scanMAX Kinase profiling ([5]; EGFR(L861q)): 100%; % inhibition of scanMAX Kinase profiling ([5]; EGFR(S752-I759del)): 99%; % inhibition of scanMAX Kinase profiling ([5]; EGFR(T790M)): 100%; % inhibition of scanMAX Kinase profiling ([5]; ERBB2): 100%; % inhibition of scanMAX Kinase profiling ([5]; ERBB4): 100%
"C=CC(=O)Nc1cc(Nc2cc(N3OCC[C@@H]3c3cc(F)cc(F)c3)ncn2)c(OC)cc1N1CC[C@@H](N(C)C)C1 [Example 242, N-(5-((6-((R)-3-(3,5-difluorophenyl)isoxazolidine-2-yl)pyrimidine-4-yl)amino)-2-((R)-3-(dimethylamino)pyrolidine-1-yl)-4-methoxyphenyl) acrylamide]",< 0.05,23,< 0.05,0.05 to 0.5,4,< 0.05,,,,,,,high suppression activity,< 0.05,< 0.05,< 0.05,< 0.05,A (GI50 < 50 nM),1,0.5 to 5,
"C=CC(=O)Nc1cc(Nc2cc(N3OCC[C@@H]3c3cc(F)cc(F)c3)ncn2)c(OC)cc1N1CCC(N2CCN(CC)CC2)CC1 [Example 236, N-(5-((6-((R)-3-(3,5-difluorophenyl)isoxazolidine-2-yl)pyrimidine-4-yl)amino)-2-(4-(4-ethylpiperazine-1-yl)piperidine-1-yl)-4-methoxyphenyl) acrylamide]",< 0.05,7,< 0.05,< 0.05,1,< 0.05,89%,100,100%,98%,100%,98%,high suppression activity,< 0.05,< 0.05,< 0.05,< 0.05,A (GI50 < 50 nM),1,0.5 to 5,% inhibition of scanMAX Kinase profiling ([5]; EGFR(L858R)): 100%; % inhibition of scanMAX Kinase profiling ([5]; EGFR(L861q)): 98%; % inhibition of scanMAX Kinase profiling ([5]; EGFR(S752-I759del)): 89%; % inhibition of scanMAX Kinase profiling ([5]; EGFR(T790M)): 100%; % inhibition of scanMAX Kinase profiling ([5]; ERBB2): 100%; % inhibition of scanMAX Kinase profiling ([5]; ERBB4): 100%
C=CC(=O)Nc1cc(Nc2cc(N3OCC[C@@H]3c3cc(F)cc(F)c3)ncn2)c(OC)cc1N1CCC(N2CCN(C3CC3)CC2)CC1 [Example 57],< 0.05,4,< 0.05,< 0.05,1,< 0.05,98%,100,100%,98%,100%,96%,high suppression activity,< 0.05,< 0.05,< 0.05,< 0.05,A (GI50 < 50 nM),1,≥ 5,% inhibition of scanMAX Kinase profiling ([5]; EGFR(L858R)): 100%; % inhibition of scanMAX Kinase profiling ([5]; EGFR(L861q)): 100%; % inhibition of scanMAX Kinase profiling ([5]; EGFR(S752-I759del)): 98%; % inhibition of scanMAX Kinase profiling ([5]; EGFR(T790M)): 100%; % inhibition of scanMAX Kinase profiling ([5]; ERBB2): 100%; % inhibition of scanMAX Kinase profiling ([5]; ERBB4): 100%
